Reference: PubChem BioAssay (NCI)
Values joined by “and” are separate entries in the source; they are usually repeats but may differ in a detail not shown here. Identical values can stand only once.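 Protocol summary: plate cells (96-well), add compound at 5 concentrations, incubate 48 h, interpolate endpoints linearly. Here, GI50 denotes the concentration required for 50% inhibition of growth. TGI denotes the concentration required for complete inhibition of growth.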

How the values were obtained:
Test in all cases: DTP human tumour cell line panel, 48 h
786-0 renal = system: 786-0 renal
A549 NSCLC = system: A549 NSCLC
CAKI-1 renal = system: CAKI-1 renal
HL-60(TB) leukemia = system: HL-60(TB) leukemia
HOP-92 NSCLC = system: HOP-92 NSCLC
M14 melanoma = system: M14 melanoma
NCI-H460 lung = system: NCI-H460 lung
SK-MEL-28 melanoma = system: SK-MEL-28 melanoma
SW-620 colon = system: SW-620 colon

Row | Compound | GI50 (786-0 renal) | TGI (786-0 renal) | GI50 (A549 NSCLC) | TGI (A549 NSCLC) | GI50 (CAKI-1 renal) | TGI (CAKI-1 renal) | GI50 (HL-60(TB) leukemia) | TGI (HL-60(TB) leukemia) | GI50 (HOP-92 NSCLC) | TGI (HOP-92 NSCLC) | GI50 (M14 melanoma) | TGI (M14 melanoma) | GI50 (NCI-H460 lung) | TGI (NCI-H460 lung) | GI50 (SK-MEL-28 melanoma) | TGI (SK-MEL-28 melanoma) | GI50 (SW-620 colon) | TGI (SW-620 colon)
1 | C1CN(SSN2CCOCC2)CCO1 | 21 µM | 37.1 µM | 78.6 µM | > 100 µM | 33.7 µM | > 100 µM | 32.2 µM | > 100 µM | 15.7 µM | 89.2 µM | 20.6 µM | 48.9 µM | 28.3 µM | > 100 µM | > 100 µM | > 100 µM | 19.4 µM | 42 µM
2 | CC1=C(CO)C(=O)O[C@@H]([C@@H](C)[C@H]2CC[C@H]3[C@@H]4C[C@@H](O)[C@@]5(O)CC=CC(=O)[C@]5(C)[C@H]4CC[C@]23C)C1 | – | 90.8 µM | – | > 100 µM | – | > 100 µM | – | > 100 µM | – | > 100 µM | – | > 100 µM | – | 38.3 µM | – | > 100 µM | – | 47.4 µM
3 | CCCCN(CCCC)c1ccc(C(=N)c2ccc(N(CCCC)CCCC)cc2)cc1 | 0.847 µM | 2.25 µM | 0.72 µM | 2.07 µM | 0.535 µM | 1.82 µM | 0.479 µM | 1.95 µM | 0.235 µM | 1.46 µM | 0.672 µM | 2.09 µM | 0.773 µM | 2.13 µM | 1.05 µM | 2.41 µM | 0.306 µM | 1.29 µM
4 | CCN(CC)Cc1ccc(Nc2nccc(-c3cnn4ncccc34)n2)cc1 | 0.0133 µM | > 12.9 µM | 0.0163 µM | > 25 µM | 0.0469 µM | > 9.11 µM | 0.00687 µM | 0.0229 µM | 0.00833 µM | 0.0977 µM | 0.0291 µM | 0.0845 µM | 0.0169 µM | 2.99 µM | 0.015 µM | 0.0727 µM | 0.0136 µM | > 9.07 µM
5 | O=C1c2c(O)cccc2C(C2OC(CO)C(O)C(O)C2O)c2cc(CO)cc(O)c21 (stereo unspecified) | – | > 100 µM | – | > 100 µM | – | > 100 µM | – | > 100 µM | – | > 100 µM | – | > 100 µM | – | > 100 µM | – | > 100 µM | – | > 100 µM
6 | C=C1C(=O)OC2C1C(OC(=O)/C(C)=C/C)CC(O)(CCl)C1C(O)C3OC3(C)C21O (stereo unspecified) | – | 39 µM | – | > 50 µM | – | > 50 µM | – | 23.2 µM | – | > 50 µM | – | > 50 µM | – | > 50 µM | – | > 50 µM | – | 34.1 µM
7 | CCc1ccc(NC(=O)COC(=O)c2cc([N+](=O)[O-])ccc2Sc2nnnn2C)cc1 | 21.1 µM | 72.9 µM | 19.7 µM | 53.1 µM | 13.7 µM | 46.5 µM | 18.8 µM | 49.7 µM | 22.8 µM | 82.7 µM | 3.16 µM | 26 µM | 13 µM | 33.3 µM | 9.94 µM | 28.8 µM | 10.9 µM | 31.5 µM
8 | C/C=C(/COC(C)=O)C(=O)OC1C=C(C=O)C(C)(C)C=C1C (stereo unspecified) | – | > 100 µM | – | > 100 µM | – | > 100 µM | – | > 100 µM | – | > 100 µM | – | > 100 µM | – | > 100 µM | – | > 100 µM | – | > 100 µM
9 | CCOc1cc2ncc(C#N)c(Nc3ccc(OCc4ccccn4)c(Cl)c3)c2cc1NC(=O)/C=C/CN(C)C | 0.755 µM | 2.81 µM | 0.371 µM and 0.377 µM | 1.94 µM and > 10 µM | 0.0564 µM and 0.146 µM | 12.5 µM and > 9.09 µM | 0.855 µM and 0.822 µM | 12.9 µM and 2.73 µM | – | 22.8 µM and 4.06 µM | 0.392 µM and 0.38 µM | 1.95 µM and 1.58 µM | 1.01 µM and 0.891 µM | 2.88 µM and > 9.38 µM | 1.41 µM and 2.36 µM | 2.96 µM and > 10 µM | 0.638 µM and 0.53 µM | 2.41 µM and 3.02 µM
10 | Cc1c2c(nn1C)CSCc1cc(n(C)n1)CSc1cc(c3ccccc3c1)OCCCc1c(C(=O)O)n(C)c3c-2c(Cl)ccc13 | 4.4 µM | 17.8 µM | 4.38 µM | 15.6 µM | 4.98 µM | 17.4 µM | 0.0427 µM | 0.294 µM | 2.46 µM | 10.2 µM | 2.68 µM | 11.1 µM | 3.23 µM | 10.7 µM | 3.61 µM | 12.9 µM | 4.26 µM | 16 µM
11 | NC(=S)N/N=C/c1ncccc1N | 0.419 µM | > 33.6 µM | 3.16 µM | > 100 µM | 0.357 µM | > 38.5 µM | 0.867 µM | 6.45 µM and > 6.69 µM | > 87.2 µM | > 100 µM | – | 5.27 µM and 2.62 µM | 0.654 µM | 12.6 µM and > 10 µM | 12.6 µM | > 100 µM | 1.45 µM | > 48.4 µM
12 | C/C(CC(=O)Nc1ccc(Cl)cc1)=N\NC(N)=S | – | > 100 µM | – | > 100 µM | – | – | – | > 100 µM | – | > 100 µM | – | > 100 µM | – | > 100 µM | – | > 100 µM | – | > 100 µM
13 | Cc1ccc(S(=O)(=O)Nc2cccc3[nH]c(C(F)(F)F)nc23)cc1 | 1.94 µM | 67.3 µM | 0.653 µM | > 45.8 µM | 0.337 µM | 24.4 µM | 0.39 µM | 17.2 µM | 0.957 µM | 9.32 µM | 0.355 µM | 38.6 µM | 0.398 µM | > 38.4 µM | 0.654 µM | > 92.8 µM | 0.382 µM | > 100 µM
14 | CN1c2ccccc2N(C)C23N(C)c4ccccc4N(C)C12N(C)c1ccccc1N3C (stereo unspecified) | – | > 100 µM | – | > 100 µM | – | > 100 µM | – | > 100 µM | – | > 100 µM | – | > 100 µM | – | > 100 µM | – | > 100 µM | – | > 100 µM
15 | CN1CC[C@@H](c2c(O)cc(O)c3c(=O)cc(-c4ccccc4Cl)oc23)[C@@H]1CO | 0.339 µM | > 10 µM | 0.368 µM | > 10 µM | 0.204 µM | > 2.56 µM | 0.313 µM | 1.99 µM | 0.19 µM | 0.701 µM | 0.331 µM | 1.26 µM | 0.318 µM | > 10 µM | 0.27 µM | 1.24 µM | 0.276 µM | > 10 µM
16 | Nc1[nH]nc2nc(-c3cccs3)cc(C(F)(F)F)c12 | > 25 µM | > 25 µM | 24.3 µM | > 25 µM | > 20.3 µM | > 25 µM | > 25 µM | > 25 µM | > 14.1 µM | > 25 µM | > 25 µM | > 25 µM | > 25 µM | > 25 µM | > 25 µM | > 25 µM | > 25 µM | > 25 µM
